Laboratory results: patent US20120094964A1, “SULFAMOYL BENZOIC ACID DERIVATIVES AS TRPM8 ANTAGONISTS” (priority 2009, published 2012)

Biological target: T1, human TRPM8 (Homo sapiens, UniProt Q7Z2W7)
T1 construct: expressed in transfected cells
Assay: In Vitro human TRPM8 Functional Assay (intracellular Ca2+, Fluo4, FDSS, menthol activation)
Format: cell-based
Conditions: HEK293 cells stably expressing human TRPM8; activation with L-(-)-Menthol; 11-point dose-response
Procedure, shortened: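 Fluo4-loaded HEK293 cells stably expressing TRPM8 were preincubated with compound for 5 min at room temperature, then stimulated with L-menthol (20 μl of 90 μM stock) while fluorescence was read. IC50 values come from 11-point curves fitted to the mean of duplicate wells.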

T1 sequence (Q7Z2W7 whole entry): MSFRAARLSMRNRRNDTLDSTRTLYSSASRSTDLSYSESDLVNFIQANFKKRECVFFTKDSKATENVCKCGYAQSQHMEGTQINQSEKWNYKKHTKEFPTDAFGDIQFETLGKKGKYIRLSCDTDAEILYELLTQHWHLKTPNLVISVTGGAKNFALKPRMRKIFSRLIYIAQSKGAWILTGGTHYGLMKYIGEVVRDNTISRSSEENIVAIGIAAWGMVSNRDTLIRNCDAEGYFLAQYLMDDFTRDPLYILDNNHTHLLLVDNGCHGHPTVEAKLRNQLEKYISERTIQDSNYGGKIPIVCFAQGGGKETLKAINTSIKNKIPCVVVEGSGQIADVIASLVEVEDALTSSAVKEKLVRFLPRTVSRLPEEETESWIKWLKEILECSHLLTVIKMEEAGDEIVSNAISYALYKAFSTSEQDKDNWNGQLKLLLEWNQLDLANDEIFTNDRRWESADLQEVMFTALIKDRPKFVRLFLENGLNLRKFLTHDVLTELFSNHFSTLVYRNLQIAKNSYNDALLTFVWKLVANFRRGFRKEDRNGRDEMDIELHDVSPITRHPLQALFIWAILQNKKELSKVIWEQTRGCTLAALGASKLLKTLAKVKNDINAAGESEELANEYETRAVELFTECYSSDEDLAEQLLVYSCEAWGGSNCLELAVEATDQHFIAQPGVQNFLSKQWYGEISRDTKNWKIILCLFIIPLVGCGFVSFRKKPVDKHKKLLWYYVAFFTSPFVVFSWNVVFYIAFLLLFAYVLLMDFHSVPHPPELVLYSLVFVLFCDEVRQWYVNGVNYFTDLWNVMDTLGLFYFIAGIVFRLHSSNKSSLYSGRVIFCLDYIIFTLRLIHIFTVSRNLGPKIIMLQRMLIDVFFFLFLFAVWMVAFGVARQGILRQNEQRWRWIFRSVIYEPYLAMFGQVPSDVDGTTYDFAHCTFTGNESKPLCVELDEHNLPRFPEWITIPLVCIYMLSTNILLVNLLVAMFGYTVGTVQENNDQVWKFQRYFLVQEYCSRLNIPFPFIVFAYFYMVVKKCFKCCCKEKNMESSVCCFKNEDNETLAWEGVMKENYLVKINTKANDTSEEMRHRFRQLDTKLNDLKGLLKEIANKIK

SMILES | IC50
COc1ccc(N(C(C)c2ccccc2F)S(=O)(=O)c2ccc(F)c(Cl)c2)cc1 (stereo not shown) [Example 97, 3-Chloro-4-fluoro-N-(1-(2-fluorophenyl)ethyl)-N-(4-methoxyphenyl) benzenesulfonamide] | 1000 to 10000 nM
O=C(O)c1ccc(S(=O)(=O)N(CCN2CCOCC2)c2ccc(C(F)(F)F)cc2Cl)cc1 [Example 81, 4-(N-(2-Chloro-4-(trifluoromethyl)phenyl)-N-(2-morpholinoethyl)sulfamoyl)benzoic acid] | 1000 to 10000 nM
O=C(O)c1ccc(S(=O)(=O)N(CC2CC2)c2ncc(C(F)(F)F)cc2Cl)cc1 [Example 29, 4-(N-(3-Chloro-5-(trifluoromethyl)pyridin-2-yl)-N-(cyclopropylmethyl)sulfamoyl)benzoic acid] | 1000 to 10000 nM
O=[N+]([O-])c1ccc(S(=O)(=O)N(Cc2ccccc2)c2ccccn2)cc1 [Example 130, N-Benzyl-4-nitro-N-(pyridin-2-yl)benzene-sulfonamide] | 1000 to 10000 nM
COc1ccc(N(C(C)c2ccccc2OC)S(=O)(=O)c2ccc(C)c(Cl)c2)cc1 (stereo not shown) [Example 104, 3-Chloro-N-(4-methoxyphenyl)-N-(1-(2-methoxy-phenyl)ethyl)-4-methyl benzenesulfonamide] | 10000 to 30000 nM
COc1ccc(OC)c(C(C)N(c2ccc(C)cc2)S(=O)(=O)c2ccc(F)cc2C)c1 (stereo not shown) [Example 96, N-(1-(2,5-Dimethoxyphenyl)ethyl)-4-fluoro-2-methyl-N-p-tolylbenzenesulfonamide] | 1000 to 10000 nM
O=C(CN(c1cccc(C(F)(F)F)c1)S(=O)(=O)c1ccccc1)N1CCCCC1 [Example 6, N-(2-oxo-2-(piperidin-1-yl)ethyl)-N-(3-(trifluoromethyl)phenyl)benzenesulfonamide] | 10000 to 30000 nM

Next, values leading:

IC50 | SMILES
< 1000 nM | COc1ccccc1-c1cnc(N(Cc2ccccc2)S(=O)(=O)c2ccc(C(=O)O)cc2)c(Cl)c1 [Example 185, 4-(N-Benzyl-N-(3-chloro-5-(2-methoxyphenyl)pyridin-2-yl)sulfamoyl)benzoic acid]
< 1000 nM | O=C(O)c1ccc(S(=O)(=O)N(Cc2ccc(OCC(F)(F)F)cc2)c2ncc(C(F)(F)F)cc2Cl)cc1 [Example 41]
< 1000 nM | CN(C)C(=O)NCc1ccc(S(=O)(=O)N(Cc2ccccc2)c2ncc(C(F)(F)F)cc2Cl)cc1 [Example 179, N-Benzyl-N-(3-chloro-5-(trifluoromethyl)pyridin-2-yl)-4-((3,3-dimethylureido)methyl)benzene sulfonamide]
< 1000 nM | Cc1cc(Cl)cnc1N(Cc1ccc(Cl)cc1C(F)(F)F)S(=O)(=O)c1ccc(C(=O)O)cc1 [Example 75, 4-(N-(4-Chloro-2-(trifluoromethyl)benzyl)-N-(5-chloro-3-methylpyridin-2-yl)sulfamoyl)benzoic acid]
< 1000 nM | O=S(=O)(c1ccc(CO)cc1)N(Cc1ccccc1)c1ncc(C(F)(F)F)cc1Cl [Example 9, N-Benzyl-N-(3-chloro-5-(trifluoromethyl)pyridin-2-yl)-4-(hydroxymethyl)benzene-1-sulfonamide]
< 1000 nM | O=C(O)c1ccc(S(=O)(=O)N(Cc2ccccc2)c2ncc(Br)cc2Cl)cc1 [Example 180, 4-(N-Benzyl-N-(5-bromo-3-chloropyridin-2-yl)sulfamoyl)benzoic acid]
< 1000 nM | COc1ccc(S(=O)(=O)N(Cc2ccccc2)c2ncc(C(F)(F)F)cc2Cl)cn1 [Example 189, N-Benzyl-N-(3-chloro-5-(trifluoromethyl)pyridin-2-yl)-6-methoxypyridine-3-sulfonamide]
< 1000 nM | O=C(O)c1ccc(S(=O)(=O)N(Cc2ccc(F)cc2Cl)c2ncc(C(F)(F)F)cc2Cl)cc1 [Example 40, 4-(N-(2-Chloro-4-fluorobenzyl)-N-(3-chloro-5-(trifluoromethyl)pyridin-2-yl)sulfamoyl)benzoic acid]
< 1000 nM | O=C(O)c1ccc(S(=O)(=O)N(CCc2ccccc2)c2ncc(C(F)(F)F)cc2Cl)cc1 [Example 148, 4-(N-(3-Chloro-5-(trifluoromethyl)pyridin-2-yl)-N-phenethylsulfamoyl)benzoic acid]
